Measurements taken from US11214569B2, “Prodrugs of quinuclidine ring-containing muscarinic agonists and compositions and methods thereof” (Lenz Therapeutics, Inc., priority 2018, dated 2022).

Assay: pH vs. solution stability of phosphono oxylmethyl prodrugs
Format: physicochemical

Row | Substance | Solubility (pH of solution 5.22) | Solubility (pH of solution 6.22) | Solubility (pH of solution 7.22) | Solubility (pH of solution 5.45) | Solubility (pH of solution 6.45) | Solubility (pH of solution 7.45)
1 | phosphono oxylmethyl aceclidine | Best | Fair | Poor | – | – | –
2 | phosphono oxymethyl talsaclidine | – | – | – | Best | Fair | Poor
